Our source for the MIC values is DBAASP.

For orientation: MIC means the lowest concentration found to suppress growth. Low values mean a more susceptible organism, high ones a less susceptible organism.

In brackets after ≈: the same amount, converted by molar mass.

Some test systems named below: Candida albicans; Staphylococcus aureus MR; Leuconostoc lactis; Listeria innocua; Escherichia coli; Bacillus cereus C737; Pasteurella multocida; Bacillus cereus; Micrococcus luteus; Streptococcus uberis; Staphylococcus aureus 15; Escherichia coli UB1005; Staphylococcus aureus.
What all share (assay): ≥ marks a high value that may be exact or a test limit, other limits are often not marked, values filed in µg/mL are converted to µM
Assay [1] has as its system Staphylococcus aureus 2844.
The subject of assay [2] is Staphylococcus aureus ATCC 29213.
In assay [3] the test system is Pseudomonas aeruginosa ATCC 27853.
For assay [4], the system named is Pseudomonas aeruginosa 15159.
In assay [5] the test system is Staphylococcus aureus FDA 486.
Assay [6] concerns Escherichia coli NBRC 3972.
The test system of assay [7] is Staphylococcus aureus NBRC 13276.
Assay [8] relates to Bacillus subtilis NBRC 3009.
Assay [9] deals with Staphylococcus aureus ATCC 49476.
Assay [10] deals with Staphylococcus aureus NCTC 12981.
The test system of assay [11] is Escherichia coli NCTC 10418.
The test system of assay [12] is Acinetobacter baumannii ATCC 17978.
In assay [13] the test system is Pseudomonas aeruginosa PAO1.
Assay [14] relates to Escherichia coli NCTC 12923.
In assay [15] the test system is Staphylococcus aureus ATCC 9144.
In assay [16] the test system is Staphylococcus epidermidis.
Assay [17] has as its system Enterococcus faecalis NCTC 775.
Assay [18] relates to Enterococcus faecalis NCTC 12201.
In assay [19] the test system is Pseudomonas aeruginosa NCTC 13437.
The subject of assay [20] is Klebsiella pneumoniae NCTC 13368.
Assay [21] relates to Candida albicans NCPF 3179.
Assay [22] concerns Batrachochytrium dendrobatidis.
Assay [23] concerns Staphylococcus aureus ATCC 25923.
Assay [24] has as its system Bacillus subtilis ATCC 23857.
For assay [25], the system named is Staphylococcus epidermidis ATCC 12228.
For assay [26], the system named is Cronobacter sakazakii ATCC 29544.
The subject of assay [27] is Klebsiella aerogenes ATCC 13048.
The test system of assay [28] is Staphylococcus aureus ATCC 29231.
Assay [29] has as its system Staphylococcus aureus MW2.
In assay [30] the test system is Acinetobacter baumannii ATCC 7978.

For the compound `CC(=O)N[C@@H](CCC(=O)O)C(=O)N[C@@H](Cc1c[nH]c2ccccc12)C(=O)N[C@@H](CCCCN)C(=O)N[C@@H](CCCN=C(N)N)C(=O)N[C@@H](Cc1c[nH]c2ccccc12)C(=O)N[C@H](C(=O)N[C@@H](CCC(N)=O)C(=O)N[C@@H](CCCN=C(N)N)C(=O)N[C@@H](Cc1c[nH]c2ccccc12)C(=O)N[C@@H](CCCCN)C(=O)N[C@@H](CC(=O)O)C(=O)N[C@@H](Cc1c[nH]c2ccccc12)C(=O)N[C@@H](CC(C)C)C(=O)N[C@@H](CCCN=C(N)N)C(=O)N[C@@H](CC(N)=O)C(=O)N[C@@H](CC(C)C)C(=O)N[C@H](C(N)=O)C(C)C)C(C)C` [EWKRWVQRWKDWLRNLV], the minimum inhibitory concentration (MIC) in assay [1] stood at 5 µM (≈ 12.2 µg/mL); in [2], 10 µM (≈ 24.4 µg/mL); in [3], 10 µM (≈ 24.4 µg/mL); in [4], 10 µM (≈ 24.4 µg/mL); in assay [5], 5 µM (≈ 12.2 µg/mL).
As for `CC[C@H](C)[C@H](NC(=O)[C@H](C)NC(=O)[C@H](CO)NC(=O)[C@@H](NC(=O)[C@H](CC(C)C)NC(=O)CNC(=O)CNC(=O)[C@@H](NC(=O)[C@H](CC(C)C)NC(=O)[C@H](CO)NC(=O)[C@@H]1CCCN1C(=O)[C@H](CC(C)C)NC(=O)[C@H](Cc1ccccc1)NC(=O)[C@H](Cc1ccccc1)NC(=O)[C@@H](N)Cc1ccccc1)[C@@H](C)CC)C(C)C)C(=O)N[C@@H](CCCCN)C(N)=O` [FFFLPSLIGGLVSAIK], the minimal inhibitory concentration (MIC) in [6] was ≥ 100 µM; in [7] it was ≥ 35.4 µM; in assay [8] it was 1.8 µM (≈ 3.08 µg/mL).
For the compound `CC[C@H](C)[C@H](NC(=O)[C@H](C)NC(=O)[C@H](CCCCN)NC(=O)CNC(=O)[C@H](C)NC(=O)[C@H](CO)NC(=O)[C@H](Cc1ccccc1)NC(=O)[C@H](CC(C)C)NC(=O)CNC(=O)CNC(=O)[C@@H](NC(=O)[C@@H](NC(=O)[C@H](Cc1cnc[nH]1)NC(=O)[C@H](Cc1cnc[nH]1)NC(=O)[C@@H](NC(=O)[C@@H](N)Cc1ccccc1)[C@@H](C)CC)[C@@H](C)CC)[C@@H](C)CC)C(=O)N[C@@H](Cc1cnc[nH]1)C(=O)N[C@@H](CO)C(=O)N[C@@H](CC(C)C)C(=O)N[C@H](C(=O)N[C@@H](Cc1cnc[nH]1)C(=O)N[C@@H](CCCN=C(N)N)C(=O)N[C@@H](CCCN=C(N)N)C(=O)N[C@@H](CCCN=C(N)N)C(=O)N[C@@H](CCCN=C(N)N)C(=O)O)[C@@H](C)CC` [FIHHIIGGLFSAGKAIHSLIHRRRR], the MIC against Candida albicans is 88.5 µM (≈ 256 µg/mL); in assay [3], 88.5 µM (≈ 256 µg/mL); in assay [9], 11.1 µM (≈ 32 µg/mL); in the assay with Staphylococcus aureus MR it was 11.1 µM (≈ 32 µg/mL).
For `NCCCC[C@H](NC(=O)[C@H](Cc1ccccc1)NC(=O)[C@H](CCCCN)NC(=O)[C@@H](N)Cc1ccccc1)C(=O)N[C@@H](Cc1ccccc1)C(N)=O` [FKFKF], the MIC in assay [10] and in assay [11] was ≥ 179 µM each time.
As to `CC[C@H](C)[C@H](NC(=O)[C@H](CC(=O)O)NC(=O)[C@H](Cc1ccccc1)NC(=O)[C@H](CC(C)C)NC(=O)CN)C(=O)N[C@H](C(=O)N[C@@H](CCCCN)C(=O)N[C@@H](CCCCN)C(=O)N[C@H](C(=O)N[C@H](C(=O)NCC(=O)N[C@@H](C)C(=O)N[C@@H](Cc1ccccc1)C(=O)NCC(=O)N[C@@H](CO)C(=O)N[C@@H](CC(C)C)C(N)=O)C(C)C)C(C)C)C(C)C` [GLFDIVKKVVGAFGSL], the minimum inhibitory concentration (MIC) was 7.27 µM (≈ 12 µg/mL) in the assay on Leuconostoc lactis; 30.3 µM (≈ 50 µg/mL) with Listeria innocua; > 60.6 µM against Escherichia coli; 4.85 µM (≈ 8 µg/mL) in assay [12]; > 77.6 µM in assay [13]; 9.7 µM (≈ 16 µg/mL) in [14]. Further, the MIC in assay [15] was 4.85 µM (≈ 8 µg/mL); in [16], ≥ 60.6 µM; in the assay with Bacillus cereus C737, ≥ 77.6 µM; in the assay on Pasteurella multocida, ≥ 60.6 µM; in assay [17], 27.4 µM (≈ 45.2 µg/mL); against Bacillus cereus, 30.3 µM (≈ 50 µg/mL). Further, the MIC in assay [18] is ≥ 38.8 µM; in the assay with Micrococcus luteus it was ≥ 60.6 µM; with Streptococcus uberis it was ≥ 60.6 µM; in [19], ≥ 77.6 µM; against Staphylococcus aureus 15, 19.4 µM (≈ 32 µg/mL); against Escherichia coli UB1005 it was ≥ 38.8 µM. Besides, the MIC was ≥ 38.8 µM in [20], 9.7 µM (≈ 16 µg/mL) in [21] and 30.3 µM (≈ 50 µg/mL) against Staphylococcus aureus.
In the case of `CC[C@H](C)[C@H](NC(=O)[C@H](CC(=O)O)NC(=O)[C@H](CC(C)C)NC(=O)[C@H](CC(C)C)NC(=O)CN)C(=O)N[C@H](C(=O)N[C@@H](CCCCN)C(=O)N[C@@H](CCCCN)C(=O)N[C@H](C(=O)N[C@H](C(=O)NCC(=O)N[C@@H](C)C(=O)N[C@@H](Cc1ccccc1)C(=O)NCC(=O)N[C@@H](CO)C(=O)N[C@@H](CC(C)C)C(N)=O)C(C)C)C(C)C)C(C)C` [GLLDIVKKVVGAFGSL], the minimum inhibitory concentration (MIC) was 3.71 µM (≈ 6 µg/mL) in the assay with Leuconostoc lactis; 3.71 µM (≈ 6 µg/mL) in the assay with Listeria innocua; > 61.9 µM with Escherichia coli; 30.9 µM (≈ 50 µg/mL) in assay [16]; ≥ 61.9 µM in the assay with Pasteurella multocida; 30.9 µM (≈ 50 µg/mL) with Bacillus cereus. Also, the MIC against Micrococcus luteus was ≥ 61.9 µM; against Streptococcus uberis, ≥ 61.9 µM; in [22], ≥ 200 µM; in the assay with Staphylococcus aureus, > 61.9 µM.
Turning to `CC[C@H](C)[C@H](N)C(=O)N[C@@H](CC(C)C)C(=O)NCC(=O)N[C@H](C(=O)N[C@H](C(=O)N[C@@H](CC(C)C)C(=O)NCC(=O)N[C@@H](CC(C)C)C(=O)N[C@@H](CC(C)C)C(=O)N[C@@H](CCCCN)C(=O)N[C@@H](Cc1ccccc1)C(=O)N[C@@H](CC(C)C)C(N)=O)[C@@H](C)CC)[C@@H](C)O` [ILGTILGLLKFL], the MIC was 4 µM (≈ 5.2 µg/mL) in assay [2]; 4 µM (≈ 5.2 µg/mL) in [23]; 4 µM (≈ 5.2 µg/mL) in [24]; 2 µM (≈ 2.6 µg/mL) in assay [25]; ≥ 256 µM in assay [26].
As to `CC[C@H](C)[C@H](NC(=O)[C@H](CCCCN)NC(=O)[C@H](Cc1c[nH]c2ccccc12)NC(=O)[C@@H](N)CC(C)C)C(=O)NCC(=O)N[C@@H](CCCCN)C(=O)N[C@@H](CCCCN)C(=O)N[C@H](C(=O)N[C@@H](Cc1c[nH]c2ccccc12)C(=O)N[C@@H](CCCN=C(N)N)C(=O)N[C@H](C(=O)NCC(=O)O)C(C)C)[C@@H](C)CC` [LWKIGKKIWRVG], the MIC in [27], in assay [28], in [29] and in assay [30] was ≥ 86.3 µM each time.
